Measured values: PubChem BioAssay (NCI)
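Grown in 96-well plates, cells were treated for 48 hours with each compound at five concentrations. Insufficient inhibition: endpoint recorded as highest concentration tested. GI50 marks 50% less growth. Definition used: TGI = concentration required for complete inhibition of growth.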

What was measured:
Assay in all cases: NCI anticancer screen, dose series, 48 h
ACHN renal = tested on: ACHN renal
HCT-116 colon = tested on: HCT-116 colon
MDA-MB-435 = tested on: MDA-MB-435
SNB-19 CNS = tested on: SNB-19 CNS
HL-60(TB) leukemia = tested on: HL-60(TB) leukemia
TK-10 renal = tested on: TK-10 renal
A498 renal = tested on: A498 renal
MALME-3M melanoma = tested on: MALME-3M melanoma
SW-620 colon = tested on: SW-620 colon
SF-295 CNS = tested on: SF-295 CNS

Row | Structure (SMILES) | GI50 (ACHN renal) [µM] | TGI (ACHN renal) [µM] | GI50 (HCT-116 colon) [nM] | TGI (HCT-116 colon) [µM] | GI50 (MDA-MB-435) [nM] | TGI (MDA-MB-435) [µM] | GI50 (SNB-19 CNS) [nM] | TGI (SNB-19 CNS) [µM] | GI50 (HL-60(TB) leukemia) [nM] | TGI (HL-60(TB) leukemia) [µM] | GI50 (TK-10 renal) [µM] | TGI (TK-10 renal) [µM] | GI50 (A498 renal) [nM] | TGI (A498 renal) [µM] | GI50 (MALME-3M melanoma) [nM] | TGI (MALME-3M melanoma) [µM] | GI50 (SW-620 colon) [nM] | TGI (SW-620 colon) [µM] | GI50 (SF-295 CNS) [nM] | TGI (SF-295 CNS) [µM]
1 | CC(C)N(C[C@H]1O[C@@H](n2cnc3c(N)ncnc32)[C@H](O)[C@@H]1O)C1CC(CCc2nc3ccc(C(C)(C)C)cc3[nH]2)C1 (stereo partly drawn) | > 100 | > 100 | > 68000 | > 100 | > 54700 | > 100 | > 100000 | > 100 | > 65900 | > 100 | > 100 | > 100 | 29600 | > 100 | 20000 | > 60.8 | > 100000 | > 100 | > 70800 | > 100
2 | CCCCCc1c(C)[nH]c(/C=c2\[nH]/c(=C3/C=c4ccccc4=N3)cc2OC)c1C | 0.122 | 1.29 | 28 | 1.07 | 45.5 | 1.16 | 226 | 15.4 | 124 | 3.63 | 0.0504 | 0.716 | 94.4 | 1.75 |  |  | 34.1 | 2.84 | 90.2 | 0.452
3 | COc1ccc(C2C3=C(COC3=O)N(CCO)c3cc4c(cc32)OCCO4)cc1OC (stereo not drawn) | > 50 | > 50 | 1960 | > 50 | 255 | 1.78 |  | > 30.5 | 1280 | 5.65 | > 10.2 | > 36.3 | 1610 | > 15.6 | > 50000 | > 50 | 1800 | > 50 | 922 | 12
4 | O=C(CC1(O)C(=O)Nc2c(Cl)ccc(Cl)c21)c1ccc(C2CC2)cc1 (stereo not drawn) | 2.19 | 20.2 | 375 | 6.05 | 88.2 | 0.272 | 1130 | 16.9 | 318 | 10.3 | 11.9 | 29.1 | 183 | 0.754 | 1530 | 26.8 | 290 | 13 | 440 | 4.32
5 | CN(C)CCOc1nc2ccccc2c2c1-c1ccc(Cl)cc1C2=O | 0.419 | 1.72 | 422 | 1.52 | 489 | 1.88 | 460 | 2.14 | 933 | 3.37 | 1.36 | 3.18 | 1190 | 2.87 | 1070 | 2.43 | 340 | 1.53 | 1530 | > 100
6 | COc1cc2c3c(c1O)C1(C=CC(=O)C=C1)CC3N(C)CC2 (stereo not drawn) |  | 43.4 |  | 14.5 |  | 23 |  | 27.9 |  | 10.9 |  | 41.7 |  | 48.4 |  | 24.8 |  | 18.3 |  | 24.3
7 | CCNCCNc1cc(-c2cccc(C(F)(F)F)c2)c(C#N)c2nc3ccccc3n12 | 1.32 | 2.9 | 239 | 0.515 | 1520 | 2.88 | 1990 | 3.97 | 2230 | 4.21 | 2.14 | 3.69 | 1640 | 3.08 | 1640 | 3.29 | 390 | 1.51 | 1790 | 3.39
8 | CN1CCN(c2ccc3nc4c(nc3c2C(F)(F)F)C(=O)c2ncccc2C4=O)CC1 |  |  | 1470 | 4.51 | 178 | 0.344 | 1660 | 5.7 | 1600 | 5.92 | 2.21 | 5.3 | 1940 | 3.63 | 1060 | 2.24 | 1420 | 3.52 | 1270 | 2.58
9 | O=C(NO)c1cnc(N2CCN(S(=O)(=O)c3ccc4ccccc4c3)CC2)nc1 | 0.0723 | 0.595 | 30 | 10.1 | 45.6 | 0.394 | 238 | 11.8 | 45.7 | 29.8 | 0.0432 | 0.454 | 28.3 | 0.22 | 22.4 | 12.6 | 34.9 |  | 53.2 | 0.268
10 | O=[N+]([O-])c1ccc(-c2ccccc2)c([As](=O)(O)O)c1 | 13.7 | 30.1 | 10900 | 25.4 | 21900 | > 100 | 18700 | > 100 | 43500 | > 100 | 17.5 | 38.5 | 16500 | 67 | 11600 | 34.6 | 7820 | 24.4 | 22300 | > 100
11 | N#CC(C#N)=Cc1ccc(-c2ccc(-c3nc4ccccc4o3)cc2)o1 | 50.8 | > 100 | 18200 | 42.3 | 57000 | > 100 | > 100000 | > 100 |  |  | 23.7 | 77.3 | 24900 | 70 | 41900 | > 100 | 20500 | > 100 | 30100 | > 100
12 | CCN(CC)c1ccc2nc3c4ccccc4c(=NC(=O)c4ccccc4-c4c5ccc(N(CC)CC)cc5[o+]c5cc(N(CC)CC)ccc45)cc-3oc2c1 | 3.97 | 13.7 | 1880 | > 22.4 | 1930 | 4.33 | 2300 | 6.64 | 2960 | > 100 | 10.3 | 31.5 | 6150 | 23.5 | 2920 | 10.2 | 2540 | > 22.5 | 2960 | 14.2
13 | NC(=O)NC(=O)C1CCCCC1C(=O)O (stereo not drawn) |  | > 100 |  | > 100 |  | > 100 |  | > 100 |  | > 100 |  | > 100 |  | > 100 |  | > 100 |  | > 100 |  | > 100
14 | c1cnc2c(c1)Nc1cnncc1S2 |  | > 100 |  | > 100 |  | > 100 |  | > 100 |  | > 100 |  | > 100 |  | > 100 |  | > 100 |  | > 100 |  | > 100
15 | Nc1cccc2nsnc12 |  | > 100 |  | > 100 |  | > 100 |  | > 100 |  | 26.7 |  | > 100 |  | > 100 |  | > 100 |  | > 100 |  | > 100
16 | COC(=O)Nc1nc2ccc(Sc3ccccc3)cc2[nH]1 | 1.19 | 22.9 | 77.1 | 10.1 | 30.7 | 0.111 | 267 | 28.9 | 80.5 | 0.455 | 1.27 | 17.3 | 140 | 6.4 | 444 | 18.8 | 107 | > 48.3 | 152 | 19.9
17 | C=C1CO[C@@H]2C[C@@H]1CC/C(C)=C/CC/C(C)=C/CC[C@@]2(C)O | 18.8 | 34 | 17200 | 31.4 | 20900 | 42.2 | 23300 | 51.6 | 1170 | 11.2 | 18.4 | 36.2 | 35800 | > 76.2 |  |  | 22200 | 45.9 | 19600 | 41.7
18 | O=C(/C=C/c1cccc(B(O)O)c1)c1cccc(B(O)O)c1 | 2.14 | 4.33 | 376 | 1.57 | 1900 | 4.88 | 2130 | 10.4 | 2170 | 6.33 | 2.57 | 6.47 | 1520 | 3.5 | 2260 | 6.01 | 765 | 2.31 | 3900 | 15.6
19 | Cc1cc2nc3c4ccccc4n(CCN(C)C)c3nc2cc1C | 0.555 | 11.3 | 488 | 11.3 | 1610 | 3.47 | 2330 | 12.3 | 1990 | 6.26 | 2.98 | 14.1 | 1430 | 2.86 | 1410 | 2.74 | 540 | 9.59 | 1390 | 9.84
20 | OC(c1ccccc1)c1c(-c2ccccc2)oc(-c2ccccc2)c1C(O)c1ccccc1 (stereo not drawn) |  | 19.1 |  | 18.3 |  | 21.1 |  | 28.6 |  | 6.13 |  | 29 |  | 30.4 |  | 25.4 |  | 34.1 |  | 29.3
21 | CSc1ccc(C2=NN(C(=O)c3ccc(N)cc3)C(c3ccc(F)cc3)C2)cc1 (stereo not drawn) | 7.35 | 19.7 | 1730 | 3.93 | 6550 | 23.6 | 8940 | 22.3 | 10500 | 36.1 | 7.5 | 26.1 | 12900 | 27.3 | 8090 | 23 | 6270 | 26.3 | 13200 | 27.9
22 | CN(NC(=O)CC(=O)NN(C)C(=S)c1ccc(Cl)cc1)C(=S)c1ccc(Cl)cc1 | 18.1 | 85.8 | 10700 | > 100 | 24400 | > 100 | 23100 | > 100 | 25100 | 71.7 | 23 | > 100 |  |  | 13200 | 52 | 29300 | > 100 | 3140 | 19.4
23 | O=P1(O)c2ccccc2CS(=O)(=O)Cc2ccccc21 |  | > 100 |  | > 100 |  | > 100 |  | > 100 |  | > 100 |  | > 100 |  | > 100 |  |  |  | > 100 |  | > 100
24 | COc1cccc(Nc2nccc(Nc3ccc4[nH]ncc4c3)n2)c1 |  |  | 1590 | 3.23 | 1490 | 3.18 |  |  | 1530 | 3.56 | 1.42 | 2.82 | 1650 | 5.3 |  |  | 2410 | 6.13 | 1660 | 3.17
25 | Cc1sc(/N=C2/NC(=O)CS2)nc1-c1nc(/N=C2/NC(=O)CS2)sc1C | > 50 | > 50 | 15700 | > 50 | > 50000 | > 50 | > 50000 | > 50 | > 50000 | > 50 | > 50 | > 50 | 47100 | > 50 |  |  | > 50000 | > 50 | > 50000 | > 50
26 | C=C(C)[C@@H]1CC[C@]2(C)[C@H](C=CC3=C4C[C@@](C)(CO)CC[C@]4(C)CC[C@]32C)[C@@]1(C)CCCN | 1.76 | 3.14 | 1690 | 3.21 | 1780 | 3.2 | 1750 | 3.17 |  |  | 1.78 | 3.36 | 1540 | 2.9 | 1460 | 2.91 | 1560 | 3.04 | 1780 | 3.21
27 | CCc1ccccc1-n1c(N)c(C#N)c(-c2ccc(OC)c(OC)c2)c(C#N)c1=O | 19.7 | 53.7 | 17000 | 31.1 | 34700 | > 100 | 20500 | 59 | > 100000 | > 100 | 18 | 39.4 |  |  | 17400 | 40.4 | 33300 | > 100 | 22400 | 61.1
28 | CCOC(=O)C(Cc1ccc(OC)cc1)C(=O)OCC | 7.33 | 22.3 | 4450 | 15.6 | 3970 | 18 | 4820 | 17.4 | 2260 | 8.39 | 8.22 | 26.2 | 6540 | 21.4 | 9940 | 28 |  |  | 5000 | 20.3
